Here are results for 16 molecules from patent US20230227447A1, “BENZYLAMINE DERIVATIVES AS DDRS INHIBITORS” (CHIESI FARMACEUTICI S.P.A., priority 2020, published 2023).

SMILES strings stand for the structures. Counter-ions that a name gives are not always drawn.

In general, Ki refers to the equilibrium dissociation constant of an inhibitor or competing ligand from its target. A lower Ki goes with higher affinity. In general, IC50 refers to the concentration that gives 50% inhibition.

The target of assay [1] is T1, DDR2 (Homo sapiens, UniProt Q16832).
T1 sequence (Q16832 22-855): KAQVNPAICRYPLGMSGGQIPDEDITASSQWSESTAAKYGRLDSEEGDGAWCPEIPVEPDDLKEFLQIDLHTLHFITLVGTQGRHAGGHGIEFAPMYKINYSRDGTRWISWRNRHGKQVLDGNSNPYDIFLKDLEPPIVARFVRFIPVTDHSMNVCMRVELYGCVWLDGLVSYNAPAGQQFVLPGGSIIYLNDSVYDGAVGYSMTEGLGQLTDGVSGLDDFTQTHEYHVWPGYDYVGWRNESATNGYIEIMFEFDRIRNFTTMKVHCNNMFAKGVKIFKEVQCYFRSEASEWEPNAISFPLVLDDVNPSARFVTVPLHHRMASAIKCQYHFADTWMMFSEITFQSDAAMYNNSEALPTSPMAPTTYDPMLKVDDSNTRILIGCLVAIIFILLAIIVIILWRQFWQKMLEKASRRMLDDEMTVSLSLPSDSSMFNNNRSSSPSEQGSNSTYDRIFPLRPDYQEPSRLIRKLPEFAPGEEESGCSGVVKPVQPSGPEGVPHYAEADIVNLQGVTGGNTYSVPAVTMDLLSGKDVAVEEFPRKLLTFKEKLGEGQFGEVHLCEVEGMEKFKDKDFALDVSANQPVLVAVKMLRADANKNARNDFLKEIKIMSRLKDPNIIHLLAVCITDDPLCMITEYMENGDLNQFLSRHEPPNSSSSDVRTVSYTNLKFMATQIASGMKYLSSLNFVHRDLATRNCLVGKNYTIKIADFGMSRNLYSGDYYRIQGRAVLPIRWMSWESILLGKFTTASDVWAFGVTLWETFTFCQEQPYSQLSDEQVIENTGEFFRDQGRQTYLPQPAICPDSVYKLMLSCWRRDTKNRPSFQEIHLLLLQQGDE
The experiment in a line: DDR2 binding assay (LanthaScreen Europium Kinase Binding assay). Details: purchased Life Technologies. The settings on record: 5 nM DDR2, 10 nM Kinase Tracer 178, 1 hour at room temperature; Ki from IC50 by Cheng-Prusoff. How it is done: (§1) DDR1 and DDR2 binding assays were performed using Life Technologies LanthaScreen™ Europium Kinase Binding assay. The compounds were incubated with 5 nM DDR1 (Carna Biosciences) or 5 nM DDR2 (Life Technologies) for 1 hour at room temperature in white 384-well OptiPlate (PerkinElmer), containing 20 nM or 10 nM Kinase Tracer 178 respectively and 2 nM Europium labelled anti-GST antibody (Life Technologies) in assay buffer (50 mM HEPES pH 7.5, 10 mM MgCl2, 1 mM EGTA and 0.01% BRIJ35).
(§2) The ratio of fluorescence emission 665 nm/615 nm after excitation at 340 nm was obtained using the Tecan Spark 20M plate reader. IC50 values were determined in GraphPad Prism 7.0 software, using 4 parameter model: log(inhibitor) vs. response. IC50 values were converted in Ki using the Cheng-Prusoff equation (Ki=IC50/(1+[Tracer]/Kd).

In assay [2] the target is T2, DDR1 (Homo sapiens, UniProt Q08345). The experiment in a line: DDR1 binding assay (LanthaScreen Europium Kinase Binding assay). Also on record: purchased Carna Biosciences. As to conditions: 5 nM DDR1, 20 nM Kinase Tracer 178, 1 hour at room temperature; Ki from IC50 by Cheng-Prusoff. As for the experimental part:
as §1, §2

Assay [3] has as its target T1, DDR2. The experiment in a line: DDR2 cell based assay (phospho-ELISA in HEK293T-DDR2 recombinant cells). Details: expressed in transfected cells; host or cells: HEK293T-DDR2 recombinant cells. The settings on record: bovine Type II Collagen 50 μg/ml. As for the experimental part: The inhibition of DDR2 phosphorylation by compounds was evaluated in HEK293T-DDR2 recombinant cells by phospho-ELISA assay. Briefly, HEK293T-DDR2 cells were seeded in poly-D-lysine-coated 24-well plates at a density of 250.000 cells/well and incubated for 1.5 hours at 37° C. and 5% CO2 in DMEM+10% FBS. After that, the medium was changed to serum-free DMEM and cells were incubated for 3 hours. Then. test compounds were added at different concentrations 30 minutes before stimulation with bovine Type II Collagen at 50 μg/ml for further 3 hours. For DDR2 phospho-ELISA assay (DuoSet IC Human Phospho-DDR2; R&D Systems), protein extracts were obtained by adding 60 μl/well of lysis buffer prepared according to the manufacturer's instructions. Protein concentration in the samples was determined by BCA assay and the levels of phospho-DDR2 were determined following R&D Systems indications. Raw data were normalized to maximal inhibition control (0% for normalization) and positive control (100% for normalization; cells treated with […] collagen II) and IC50 parameters were calculated in GraphPad Prism 8.0 software, using sigmoidal dose-response curve fitting with variable slope.
On the technique in general: ELISA stands for enzyme-linked immunosorbent assay.

In assay [4] the target is T2, DDR1. In words: DDR1 cell based assay (PathHunter U2OS DDR1 assay). Also on record: host or cells: U2OS-DDR1. As to conditions: U2OS-DDR1 cells, bovine Type II Collagen 20 μg/ml, luminescence. How it is done:
The inhibition of DDR1 receptor activation by compounds was evaluated by PathHunter® U2OS DDR1 assay (Eurofins DiscoverX), according to the manufacturer's instructions. Briefly, U2OS-DDR1 cells were seeded in white 384-well plates at a density of 5000 cells/well and incubated for 2 hours at 37° C. and 5% CO2. Cells were then treated with compounds at different concentrations and incubated for 30 minutes, before stimulation with bovine Type II Collagen 20 μg/ml and incubation overnight at 37° C. and 5% CO2. PathHunter Detection Reagents were prepared according to the protocol provided by DiscoverX and 20 μl/well of this mix were added to each well. After incubating the plates for 1 hour at room temperature in the dark, luminescence signal was acquired with a plate reader. Raw data were normalized to vehicle control (0% for normalization) and positive control (100% for normalization; cells treated with 20 μg/ml collagen II) and IC50 parameters were calculated in GraphPad Prism 8.0 software, using sigmoidal dose-response curve fitting with variable slope.

T2 sequence (Q08345 19-913): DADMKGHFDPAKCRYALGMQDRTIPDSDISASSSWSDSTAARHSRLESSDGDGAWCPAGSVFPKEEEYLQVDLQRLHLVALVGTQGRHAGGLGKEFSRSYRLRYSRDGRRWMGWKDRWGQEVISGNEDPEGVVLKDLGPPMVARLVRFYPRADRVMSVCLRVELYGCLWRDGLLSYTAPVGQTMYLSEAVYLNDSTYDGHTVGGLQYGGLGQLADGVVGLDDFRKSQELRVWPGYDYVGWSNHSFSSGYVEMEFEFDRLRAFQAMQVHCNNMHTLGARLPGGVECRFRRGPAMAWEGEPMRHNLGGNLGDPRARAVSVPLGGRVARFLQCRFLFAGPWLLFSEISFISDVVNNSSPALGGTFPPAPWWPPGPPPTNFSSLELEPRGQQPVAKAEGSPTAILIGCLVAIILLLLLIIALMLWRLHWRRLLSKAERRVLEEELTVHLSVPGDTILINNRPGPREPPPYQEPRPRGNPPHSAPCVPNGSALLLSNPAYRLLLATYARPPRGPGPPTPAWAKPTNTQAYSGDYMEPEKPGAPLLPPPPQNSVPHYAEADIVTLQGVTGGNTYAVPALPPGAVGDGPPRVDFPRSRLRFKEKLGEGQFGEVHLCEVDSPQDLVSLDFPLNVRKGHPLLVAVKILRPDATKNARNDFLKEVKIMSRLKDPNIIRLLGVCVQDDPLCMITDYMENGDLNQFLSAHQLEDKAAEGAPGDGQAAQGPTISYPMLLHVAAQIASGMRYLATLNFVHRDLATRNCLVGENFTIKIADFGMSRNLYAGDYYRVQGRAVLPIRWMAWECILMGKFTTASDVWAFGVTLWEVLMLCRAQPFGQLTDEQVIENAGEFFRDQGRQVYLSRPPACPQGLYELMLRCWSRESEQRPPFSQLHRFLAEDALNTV

With `COc1ccc(NC(=O)c2ccc(C)c(CNc3cncnc3)c2)cc1C(F)(F)F` [Example 31, N-(4-methoxy-3-(trifluoromethyl)phenyl)-4-methyl-3-((pyrimidin-5-ylamino)methyl)benzamide], the Ki in assay [1] and in assay [2] was less than 30 nM throughout. Also, the IC50 in assay [3] and in assay [4] was less than 10 nM each time.
Consider `O=C(Nc1cccc(OC(F)(F)F)c1)c1ccc(F)c(CNc2cnc3[nH]ccc3c2)c1` [Example 38, 3-(((1H-pyrrolo[2,3-b]pyridin-5-yl)amino)methyl)-4-fluoro-N-(3-(trifluoromethoxy)phenyl)benzamide], for which the Ki in assay [1] and in assay [2] was less than 30 nM throughout. Besides, the IC50 was 10 to 15 nM in assay [3] and less than 10 nM in assay [4].
In the case of `Cc1ccc(C(=O)Nc2cccc(OC(F)(F)F)c2)cc1CNc1cncnc1` [Example 37, 4-methyl-3-((pyrimidin-5-ylamino)methyl)-N-(3-(trifluoromethoxy)phenyl)benzamide], the Ki in assay [1] and in assay [2] was less than 30 nM each time. In addition, the IC50 in assay [3] is 10 to 15 nM; in assay [4], less than 10 nM.
With `Cn1ccc(-c2cncc(NCc3cc(C(=O)Nc4cccc(OC(F)(F)F)c4)ccc3F)c2)n1` [Example 35, 4-fluoro-3-(((5-(1-methyl-1H-pyrazol-3-yl)pyridin-3-yl)amino)methyl)-N-(3-(trifluoromethoxy)phenyl)benzamide], the Ki in assay [1] and in assay [2] was less than 30 nM in each case. Moreover, the IC50 in assay [3] and in assay [4] was less than 10 nM each time.
In the case of `Cc1ccc(C(=O)Nc2cccc(C(F)(F)F)c2)cc1CNc1cncnc1` [Example 32, 4-methyl-3-((pyrimidin-5-ylamino)methyl)-N-(3-(trifluoromethyl)phenyl)benzamide], the Ki in assay [1] and in assay [2] was less than 30 nM throughout. Further, the IC50 in assay [3] and in assay [4] was less than 10 nM in each case.
Regarding `Cc1cn(-c2cc(NC(=O)c3ccc(C)c(CNc4cnc5ccnn5c4)c3)cc(C(F)(F)F)c2)cn1` [Example 1, 4-methyl-N-(3-(4-methyl-1H-imidazol-1-yl)-5-(trifluoromethyl)phenyl)-3-((pyrazolo[1,5-a]pyrimidin-6-ylamino)methyl)benzamide], the Ki in assay [1] and in assay [2] was less than 30 nM each time.
Turning to `Cc1cn(-c2cc(NC(=O)c3ccc(C)c(CNc4cnc5[nH]ccc5c4)c3)cc(C(F)(F)F)c2)cn1` [Example 5, 3-(((1H-pyrrolo[2,3-b]pyridin-5-yl)amino)methyl)-4-methyl-N-(3-(4-methyl-1H-imidazol-1-yl)-5-(trifluoromethyl)phenyl)benzamide], the Ki in assay [1] and in assay [2] was less than 30 nM in each case.
As for `Cc1cn(-c2cc(NC(=O)c3ccc(C)c(CNC4CNc5ccnn5C4)c3)cc(C(F)(F)F)c2)cn1` (centres unmarked) [Example 6, 4-methyl-N-(3-(4-methyl-1H-imidazol-1-yl)-5-(trifluoromethyl)phenyl)-3-(((4,5,6,7-tetrahydropyrazolo[1,5-a]pyrimidin-6-yl)amino)methyl)benzamide], the Ki in assay [1] and in assay [2] was 300 to 1000 nM each time.
On to `Cc1cn(-c2cc(NC(=O)c3ccc(C)c(CNc4cncnc4)c3)cc(C(F)(F)F)c2)cn1` [Example 20, 4-methyl-N-(3-(4-methyl-1H-imidazol-1-yl)-5-(trifluoromethyl)phenyl)-3-((pyrimidin-5-ylamino)methyl)benzamide], for which the Ki in assay [1] and in assay [2] was less than 30 nM in each case. Moreover, the IC50 in assay [3] is 10 to 15 nM; in assay [4] it was less than 10 nM.
Take `Cc1cn(-c2cc(NC(=O)c3ccc(C)c(CNC(=O)c4cnc5ccccn45)c3)cc(C(F)(F)F)c2)cn1` [Example 22, N-(2-methyl-5-((3-(4-methyl-1H-imidazol-1-yl)-5-(trifluoromethyl)phenyl)carbamoyl)benzyl)imidazo[1,2-a]pyridine-3-carboxamide]: the Ki in assay [1] and in assay [2] was less than 30 nM each time.
On to `CNC(=O)c1cc(NCc2cc(C(=O)Nc3cc(CN4CCN(C)CC4)cc(C(F)(F)F)c3)ccc2C)ccn1` [Example 24, N-methyl-4-((2-methyl-5-((3-((4-methylpiperazin-1-yl)methyl)-5-(trifluoromethyl)phenyl)carbamoyl)benzyl)amino)picolinamide], for which the Ki in assay [1] and in assay [2] was less than 30 nM each time.
As to `Cc1cn(-c2cc(NC(=O)c3ccc(C)c(CNC(=O)c4cnc5[nH]ccc5c4)c3)cc(C(F)(F)F)c2)cn1` [Example 25, N-(2-methyl-5-((3-(4-methyl-1H-imidazol-1-yl)-5-(trifluoromethyl)phenyl)carbamoyl)benzyl)-1H-pyrrolo[2,3-b]pyridine-5-carboxamide], the Ki in assay [1] and in assay [2] was less than 30 nM each time.
For `Cc1cn(-c2cc(NC(=O)c3ccc(C)c(CNc4ccnc(C#N)c4)c3)cc(C(F)(F)F)c2)cn1` [Example 7, 3-(((2-cyanopyridin-4-yl)amino)methyl)-4-methyl-N-(3-(4-methyl-1H-imidazol-1-yl)-5-(trifluoromethyl)phenyl)benzamide], the Ki in assay [1] and in assay [2] was 30 to 300 nM each time.
Consider `CCCc1ccc(C(=O)Nc2cc(CN3CCN(C)CC3)cc(C(F)(F)F)c2)cc1CNC(=O)c1cnc2ccccn12` [Example 28, N-(5-((3-((4-methylpiperazin-1-yl)methyl)-5-(trifluoromethyl)phenyl)carbamoyl)-2-propylbenzyl)imidazo[1,2-a]pyridine-3-carboxamide formate salt], for which the Ki in assay [1] and in assay [2] was 300 to 1000 nM each time.
Consider `Cc1cn(-c2cc(NC(=O)c3ccc(C)c(CNc4ccc5ncsc5c4)c3)cc(C(F)(F)F)c2)cn1` [Example 3, 3-((benzo[d]thiazol-6-ylamino)methyl)-4-methyl-N-(3-(4-methyl-1H-imidazol-1-yl)-5-(trifluoromethyl)phenyl)benzamide], for which the Ki in assay [1] and in assay [2] was 30 to 300 nM in each case.
In the case of `Cc1ccc(C(=O)Nc2cc(CN3CCN(C)CC3)cc(C(F)(F)F)c2)cc1CNc1cnc2ccnn2c1` [Example 18, 4-methyl-N-(3-((4-methylpiperazin-1-yl)methyl)-5-(trifluoromethyl)phenyl)-3-((pyrazolo[1,5-a]pyrimidin-6-ylamino)methyl)benzamide], the Ki is 30 to 300 nM in assay [1] and less than 30 nM in assay [2].
